In ChEMBL document CHEMBL1125959, “Synthesis and DNA binding properties of an amidine-linked and phenyl-containing analogue of distamycin A” (Bioorg Med Chem Lett, 1991):

Experiments:
[1] = tested on: Nucleic Acid; experiment: The apparent DNA binding constant to bind with T4 DNA was determined by ethidium displacement assay; format: nucleic-acid assay
[2] = tested on: Nucleic Acid; experiment: The apparent DNA binding constant to bind with calf thymus DNA was determined by ethidium displacement assay; format: nucleic-acid assay; conditions: Bos taurus

| Compound | K app [1] | K app [2] |
| --- | --- | --- |
| CN(C)CC/N=C(\N)c1cccc(NC(=O)c2cccc(NC=O)c2)c1 | 120000 M⁻¹ | 65000 M⁻¹ |
| Cn1cc(NC(=O)c2cc(NC(=O)c3cc(NC=O)cn3C)cn2C)cc1C(=O)NCCC(=N)N | – | 770000 M⁻¹ |
